Measured values published in patent US9226506B2, “Methods of weed control in chicory” (Dow AgroSciences LLC, priority 2013, dated 2016).

Experiments:
[1] = system: Matricaria recutita (wild chamomile), MATCH; assay: Field trial, post-emergence weed control in chicory; assay type: in vivo; conditions: 2-3 trials (number of trials in parentheses in cell), 30 days after last application
Procedure: (§1) Field trials were conducted in Northern France and Belgium, both of which are major areas for root chicory and whitloof chicory production. Trials were conducted in accordance with EPPO standard PP 1/99(3) entitled “Weeds in Roots Vegetables,” PP 1/152(4) entitled “Design and Analysis of Efficacy Evaluation Trials,” PP 1/135(3) entitled “Phytotoxic Assessment,” and PP 1/181(4) entitled “Conduct and Reporting of Efficacy Evaluation Trials Including Good Experimental Practice,” all of which are incorporated herein by reference in their entirety.
(§2) Application to all field trials was made using a small plot precision sprayer operating at between 160-400 kilopascals (kPa) pressure, delivering a spray volume of 150-400 liters per hectare (L/ha). Nozzles were of a flat fan type. Trial plot size ranged from 4.5×2.5 square meters (m^2) to 10.5×2.5 m^2. Plots were replicated 3 or 4 times and were arranged in a randomized block design within each trial. All trials received a pre-emergence application of BONALAN® at 6 L/ha (benfluralin; 180 grams active ingredient per liter (g ai/L); commercially available from Dow AgroSciences LLC) with incorporation to prevent the emergence of grasses which could complicate the assessment of broadleaf control.
(§3) In whitloof chicory (Cichorium intybus), treatments were evaluated which included either two or three post-emergence applications of herbicide. Multiple applications of herbicide were evaluated for their ability to control weed emergence during the extended period of time required for chicory cultivation. Trials included different combinations of application rate and application timing. Broadcast applications were made from May to July, covering a range of possible application timings. Penoxulam was applied at a maximum total rate of 15 g/ha per season, applied in two or three applications with a minimum of seven days between applications. Treatment with penoxsulam involved application of either BOA® or VIPER® (2.14% weight per weight (w/w) oil dispersions of penoxsulam commercially available from Dow AgroSciences LLC). Trials were also conducted using another ALS mode-of-action herbicide (i.e., the sulfonylurea triflusulfuron-methyl). Triflusulfuron-methyl was applied at a maximum total rate of 30 g/ha per season, applied in two or three applications with a minimum of seven days between applications. Treatment with triflusulfuron-methyl involved application of SAFARI® (triflusulfuron-methyl; commercially available from DuPont Crop Protection).
(§4) Prior to treatment application, assessments of weed populations (number of plants per m^2) were carried out using a quadrant square and an appropriate number of sampling points.
(§5) 1) Visual rating in percent of the overall volume reduction of vegetation for each species compared to the nearest untreated plot (Plant/Control/% visual; 0%=no control; 100%=all weeds dead). Assessments of this type were performed by Dow AgroSciences LLC in France.
(§6) Assessments of weed control were carried out at 14, 28, 56 and 84 days or longer after each application timing (DAAA=days after application A, DAAB=days after application B or DAAC=days after application C).

[2] = system: Solanum nigrum (black nightshade), SQLNI; assay: as above; assay type: in vivo; conditions: 2 trials, 30 days after last application
Procedure: as §1, §2, §3, §4, §5, §6

[3] = system: Sonchus sp. (sow-thistle), SONSS; assay: as above; assay type: in vivo; conditions: 1 trial, 30 days after last application
Procedure: as §1, §2, §3, §4, §5, §6

[4] = system: chicory (varieties Ecrine, Hermès); assay: Yield of chicons after forcing; assay type: in vivo, Cichorium intybus; conditions: 171 DAAC and 21 days after start of forcing; for Yield of Chicons, Brut, Average / Yield of Chicons, Brut, Ecrine / Yield of Chicons, Brut, Hermès: total weight of chicons; for Yield of Chicons, Brut, Average: average of both varieties; for Yield of Chicons, Extra + 1, Ecrine / Yield of Chicons, Extra + 1, Hermès: weight of Extra and First Class chicons; for Yield of Chicons, Net, Ecrine / Yield of Chicons, Net, Hermès: weight of marketable chicons
Procedure: Trials were also performed to investigate the effect of post-emergence applications of penoxsulam or SAFARI® (triflusulfuron-methyl) on the yield of chicons in two different varieties of chicory. The trial was carried out on plots measuring 3×5 meters. Two varieties of chicory (Hermes and Ecrine) were sown. Treatments were carried out, as described above (a) 18 days after sowing, (b) 25 days after sowing, and (c) 32 days after sowing. Trial assessments were carried out 21 DAAC and 46 DAAC on the number of plants per linear meter, and on their development stage (number of leaves per plant).
Harvest was carried out 171 DAAC on 4 rows per plot. After harvest, the roots were counted and weighted, and the percent of roots usable for forcing was measured. The roots were then stored in a conservation room for 21 days until start of forcing phase. After 21 days of forcing, the chicons produced were weighed and classified in the commercial quality categories. The brut yield (total weight of chicons produced; marketable+non-marketable), net yield (weight of marketable chicons produced) and best class yield (Extra+1=weight of Extra and First Class chicons produced) were measured (in kilograms per 10 square meters (kg/10 m^2)).

[5] = 3 applications 3.73/3.73/3.73 g ai/ha

COc1cnc(OC)n2nc(NS(=O)(=O)c3c(OCC(F)F)cccc3C(F)(F)F)nc12 [Penoxsulam]
% Visual Weed Control ([1]; 2 applications 5.6/5.6 g ai/ha): 93 (2) %
% Visual Weed Control ([1]; 2 applications 7.5/7.5 g ai/ha): 93.9 (3) %
% Visual Weed Control [1, 5]: 91.4 (2) %
% Visual Weed Control ([1]; 3 applications 5/5/5 g ai/ha): 97.2 (3) %
% Visual Weed Control ([2]; 2 applications 5.6/5.6 g ai/ha): 66.5%
% Visual Weed Control ([2]; 2 applications 7.5/7.5 g ai/ha): 100%
% Visual Weed Control [2, 5]: 83.4%
% Visual Weed Control ([2]; 3 applications 5/5/5 g ai/ha): 83.4%
% Visual Weed Control ([3]; 2 applications 5.6/5.6 g ai/ha): 86%
% Visual Weed Control ([3]; 2 applications 7.5/7.5 g ai/ha): 86%
% Visual Weed Control [3, 5]: 86%
% Visual Weed Control ([3]; 3 applications 5/5/5 g ai/ha): 86%
Yield of Chicons, Brut, Average ([4]; 5/5/5 g ai/ha): 40.7 Kg/10 m^2
Yield of Chicons, Brut, Average ([4]; 7.5/7.5/7.5 g ai/ha): 40.8 Kg/10 m^2
Yield of Chicons, Brut, Average ([4]; 7.5/7.5 g ai/ha): 39.6 Kg/10 m^2
Yield of Chicons, Brut, Average ([4]; 10/10/10 g ai/ha): 45.1 Kg/10 m^2
Yield of Chicons, Brut, Average ([4]; 11.2/11.2 g ai/ha): 39.9 Kg/10 m^2
Yield of Chicons, Brut, Average ([4]; 15/15 g ai/ha): 39.9 Kg/10 m^2
Yield of Chicons, Brut, Ecrine ([4]; 5/5/5 g ai/ha): 47.5 Kg/10 m^2
Yield of Chicons, Brut, Hermès ([4]; 5/5/5 g ai/ha): 33.8 Kg/10 m^2
Yield of Chicons, Brut, Ecrine ([4]; 7.5/7.5/7.5 g ai/ha): 45.1 Kg/10 m^2
Yield of Chicons, Brut, Hermès ([4]; 7.5/7.5/7.5 g ai/ha): 36.5 Kg/10 m^2
Yield of Chicons, Brut, Ecrine ([4]; 7.5/7.5 g ai/ha): 42.4 Kg/10 m^2
Yield of Chicons, Brut, Hermès ([4]; 7.5/7.5 g ai/ha): 36.7 Kg/10 m^2
Yield of Chicons, Brut, Ecrine ([4]; 10/10/10 g ai/ha): 50.7 Kg/10 m^2
Yield of Chicons, Brut, Hermès ([4]; 10/10/10 g ai/ha): 39.4 Kg/10 m^2
Yield of Chicons, Brut, Ecrine ([4]; 11.2/11.2 g ai/ha): 42.8 Kg/10 m^2
Yield of Chicons, Brut, Hermès ([4]; 11.2/11.2 g ai/ha): 37 Kg/10 m^2
Yield of Chicons, Brut, Ecrine ([4]; 15/15 g ai/ha): 46.4 Kg/10 m^2
Yield of Chicons, Brut, Hermès ([4]; 15/15 g ai/ha): 33.4 Kg/10 m^2
Yield of Chicons, Extra + 1, Ecrine ([4]; 5/5/5 g ai/ha): 29 Kg/10 m^2
Yield of Chicons, Extra + 1, Hermès ([4]; 5/5/5 g ai/ha): 17.7 Kg/10 m^2
Yield of Chicons, Extra + 1, Ecrine ([4]; 7.5/7.5/7.5 g ai/ha): 27.2 Kg/10 m^2
Yield of Chicons, Extra + 1, Hermès ([4]; 7.5/7.5/7.5 g ai/ha): 18.6 Kg/10 m^2
Yield of Chicons, Extra + 1, Ecrine ([4]; 7.5/7.5 g ai/ha): 28.2 Kg/10 m^2
Yield of Chicons, Extra + 1, Hermès ([4]; 7.5/7.5 g ai/ha): 21.1 Kg/10 m^2
Yield of Chicons, Extra + 1, Ecrine ([4]; 10/10/10 g ai/ha): 29.5 Kg/10 m^2
Yield of Chicons, Extra + 1, Hermès ([4]; 10/10/10 g ai/ha): 19.2 Kg/10 m^2
Yield of Chicons, Extra + 1, Ecrine ([4]; 11.2/11.2 g ai/ha): 25 Kg/10 m^2
Yield of Chicons, Extra + 1, Hermès ([4]; 11.2/11.2 g ai/ha): 22.8 Kg/10 m^2
Yield of Chicons, Extra + 1, Ecrine ([4]; 15/15 g ai/ha): 30.7 Kg/10 m^2
Yield of Chicons, Extra + 1, Hermès ([4]; 15/15 g ai/ha): 16.1 Kg/10 m^2
Yield of Chicons, Net, Ecrine ([4]; 5/5/5 g ai/ha): 36.4 Kg/10 m^2
Yield of Chicons, Net, Hermès ([4]; 5/5/5 g ai/ha): 25.6 Kg/10 m^2
Yield of Chicons, Net, Ecrine ([4]; 7.5/7.5/7.5 g ai/ha): 34.6 Kg/10 m^2
Yield of Chicons, Net, Hermès ([4]; 7.5/7.5/7.5 g ai/ha): 25.7 Kg/10 m^2
Yield of Chicons, Net, Ecrine ([4]; 7.5/7.5 g ai/ha): 33.9 Kg/10 m^2
Yield of Chicons, Net, Hermès ([4]; 7.5/7.5 g ai/ha): 26.6 Kg/10 m^2
Yield of Chicons, Net, Ecrine ([4]; 10/10/10 g ai/ha): 38.7 Kg/10 m^2
Yield of Chicons, Net, Hermès ([4]; 10/10/10 g ai/ha): 27.7 Kg/10 m^2
Yield of Chicons, Net, Ecrine ([4]; 11.2/11.2 g ai/ha): 33.2 Kg/10 m^2
Yield of Chicons, Net, Hermès ([4]; 11.2/11.2 g ai/ha): 28.6 Kg/10 m^2
Yield of Chicons, Net, Ecrine ([4]; 15/15 g ai/ha): 37.4 Kg/10 m^2
Yield of Chicons, Net, Hermès ([4]; 15/15 g ai/ha): 22.5 Kg/10 m^2
